Measured values reported in patent US9290788B2, “Device for determining or studying the state of stimulation of the natural defences of plants or portions of plants” (Institut National De La Recherche Agronomique, priority 2010, dated 2016).
Several values for one entry are separate records, joined by “and”; a condition that tells them apart may be missing. Identical values can stand only once.

Key:
[1] = tested on: 28 target genes (defense genes) in apple tree leaves; experiment: Test 1: relative expression of the 28 defense genes (qPCR, ΔΔCt) in apple tree seedling leaves subjected to NDS treatments and abiotic stresses; assay type: in vivo, apple tree seedlings (Golden Delicious); conditions: for effect on the modulation of target gene expression (in words): Test 1; for Relative expression ACCO (log base 2) / Relative expression APOX (log base 2) / Relative expression CAD (log base 2) / Relative expression CHS (log base 2) / Relative expression CSL (log base 2) / Relative expression CalS (log base 2) / Relative expression DFR (log base 2) / Relative expression EDS1 (log base 2) / Relative expression EIN3 (log base 2) / Relative expression FPPS (log base 2) / Relative expression Far (log base 2) / Relative expression GST (log base 2) / Relative expression HMGR (log base 2) / Relative expression JAR (log base 2) / Relative expression LOX2 (log base 2) / Relative expression POX (log base 2) / Relative expression PPO (log base 2) / Relative expression Pect (log base 2) / Relative expression WRKY (log base 2): abiotic stress; for Relative expression of ANS / Relative expression of PAL / Relative expression of PR-1 / Relative expression of PR-2 / Relative expression of PR-4 / Relative expression of PR-5 / Relative expression of PR-8 / Relative expression of PR-14 / Relative expression of PR-15: vs water control, abiotic stress treatment
[2] = tested on: 28 target genes (defense genes) in apple tree leaves; experiment: Test 2: analysis of defenses, expression of the 28 genes (qPCR) in apple tree seedlings sprayed with 10 NDS candidates, with or without hydrogen peroxide; assay type: in vivo, apple tree seedlings (Golden Delicious)

Compound: C[n+]1ccc(-c2cc[n+](C)cc2)cc1 [Paraquat, paraquat dichloride x-hydrate]
- effect on the modulation of target gene expression (in words) [1]: strongly activates some genes
- Relative expression ACCO (log base 2) ([1]; J1, relative to water control): −1.33
- Relative expression APOX (log base 2) ([1]; J1, relative to water control): 0.00
- Relative expression CAD (log base 2) ([1]; J1, relative to water control): 0.04
- Relative expression CHS (log base 2) ([1]; J1, relative to water control): −1.56
- Relative expression CSL (log base 2) ([1]; J1, relative to water control): 2.29
- Relative expression CalS (log base 2) ([1]; J1, relative to water control): 0.00
- Relative expression DFR (log base 2) ([1]; J1, relative to water control): −0.74
- Relative expression EDS1 (log base 2) ([1]; J1, relative to water control): 0.83
- Relative expression EIN3 (log base 2) ([1]; J1, relative to water control): 0.00
- Relative expression FPPS (log base 2) ([1]; J1, relative to water control): 1.02
- Relative expression Far (log base 2) ([1]; J1, relative to water control): 2.76
- Relative expression GST (log base 2) ([1]; J1, relative to water control): 1.99
- Relative expression HMGR (log base 2) ([1]; J1, relative to water control): 2.85
- Relative expression JAR (log base 2) ([1]; J1, relative to water control): 0.00
- Relative expression LOX2 (log base 2) ([1]; J1, relative to water control): −0.58
- Relative expression POX (log base 2) ([1]; J1, relative to water control): 0.00
- Relative expression PPO (log base 2) ([1]; J1, relative to water control): 0.67
- Relative expression Pect (log base 2) ([1]; J1, relative to water control): 0.00
- Relative expression WRKY (log base 2) ([1]; J1, relative to water control): 4.01
- Relative expression ACCO (log base 2) ([1]; J2, relative to water control): 0.02
- Relative expression APOX (log base 2) ([1]; J2, relative to water control): 2.01
- Relative expression CAD (log base 2) ([1]; J2, relative to water control): 0.27
- Relative expression CHS (log base 2) ([1]; J2, relative to water control): −1.49
- Relative expression CSL (log base 2) ([1]; J2, relative to water control): 4.42
- Relative expression CalS (log base 2) ([1]; J2, relative to water control): 0.42
- Relative expression DFR (log base 2) ([1]; J2, relative to water control): −1.14
- Relative expression EDS1 (log base 2) ([1]; J2, relative to water control): 2.89
- Relative expression EIN3 (log base 2) ([1]; J2, relative to water control): 0.21
- Relative expression FPPS (log base 2) ([1]; J2, relative to water control): 0.15
- Relative expression Far (log base 2) ([1]; J2, relative to water control): 2.30
- Relative expression GST (log base 2) ([1]; J2, relative to water control): 1.83
- Relative expression HMGR (log base 2) ([1]; J2, relative to water control): 1.20
- Relative expression JAR (log base 2) ([1]; J2, relative to water control): −0.81
- Relative expression LOX2 (log base 2) ([1]; J2, relative to water control): −0.54
- Relative expression POX (log base 2) ([1]; J2, relative to water control): 4.26
- Relative expression PPO (log base 2) ([1]; J2, relative to water control): 6.27
- Relative expression Pect (log base 2) ([1]; J2, relative to water control): 2.17
- Relative expression WRKY (log base 2) ([1]; J2, relative to water control): 6.37
- Relative expression ACCO (log base 2) ([1]; J3, relative to water control): 0.41
- Relative expression APOX (log base 2) ([1]; J3, relative to water control): 1.48
- Relative expression CAD (log base 2) ([1]; J3, relative to water control): −0.51
- Relative expression CHS (log base 2) ([1]; J3, relative to water control): −2.04
- Relative expression CSL (log base 2) ([1]; J3, relative to water control): 5.43
- Relative expression CalS (log base 2) ([1]; J3, relative to water control): 0.01
- Relative expression DFR (log base 2) ([1]; J3, relative to water control): −2.09
- Relative expression EDS1 (log base 2) ([1]; J3, relative to water control): 2.28
- Relative expression EIN3 (log base 2) ([1]; J3, relative to water control): −0.11
- Relative expression FPPS (log base 2) ([1]; J3, relative to water control): −1.83
- Relative expression Far (log base 2) ([1]; J3, relative to water control): 1.85
- Relative expression GST (log base 2) ([1]; J3, relative to water control): 0.80
- Relative expression HMGR (log base 2) ([1]; J3, relative to water control): −0.24
- Relative expression JAR (log base 2) ([1]; J3, relative to water control): −2.46
- Relative expression LOX2 (log base 2) ([1]; J3, relative to water control): −2.37
- Relative expression POX (log base 2) ([1]; J3, relative to water control): −0.53
- Relative expression PPO (log base 2) ([1]; J3, relative to water control): 4.63
- Relative expression Pect (log base 2) ([1]; J3, relative to water control): −2.82
- Relative expression WRKY (log base 2) ([1]; J3, relative to water control): 2.76
- Relative expression of ANS ([1]; J1): 0.00 log2
- Relative expression of PAL ([1]; J1): 1.99 log2
- Relative expression of PR-1 ([1]; J1): 0.55 log2
- Relative expression of PR-2 ([1]; J1): 4.09 log2
- Relative expression of PR-4 ([1]; J1): 7.10 log2
- Relative expression of PR-5 ([1]; J1): 0.00 log2
- Relative expression of PR-8 ([1]; J1): 0.00 log2
- Relative expression of PR-14 ([1]; J1): 2.61 log2
- Relative expression of PR-15 ([1]; J1): 0.00 log2
- Relative expression of ANS ([1]; J2): −2.09 log2
- Relative expression of PAL ([1]; J2): 2.56 log2
- Relative expression of PR-1 ([1]; J2): 3.00 log2
- Relative expression of PR-2 ([1]; J2): 5.88 log2
- Relative expression of PR-4 ([1]; J2): 6.93 log2
- Relative expression of PR-5 ([1]; J2): −3.05 log2
- Relative expression of PR-8 ([1]; J2): 5.12 log2
- Relative expression of PR-14 ([1]; J2): 6.04 log2
- Relative expression of PR-15 ([1]; J2): 4.77 log2
- Relative expression of ANS ([1]; J3): −0.78 log2
- Relative expression of PAL ([1]; J3): 0.66 log2
- Relative expression of PR-1 ([1]; J3): 0.54 log2
- Relative expression of PR-2 ([1]; J3): 2.53 log2
- Relative expression of PR-4 ([1]; J3): 6.63 log2
- Relative expression of PR-5 ([1]; J3): −8.56 log2
- Relative expression of PR-8 ([1]; J3): 5.36 log2
- Relative expression of PR-14 ([1]; J3): 1.28 log2
- Relative expression of PR-15 ([1]; J3): −0.34 log2

Compound: OO [H202]
- ACCO expression ([2]; J2 + H2O2): 0.60
- APOX expression ([2]; J2 + H2O2): −0.37
- CAD expression ([2]; J2 + H2O2): −0.32
- CSL expression ([2]; J2 + H2O2): 2.28
- CalS expression ([2]; J2 + H2O2): −0.31
- EDS1 expression ([2]; J2 + H2O2): 1.12
- EIN3 expression ([2]; J2 + H2O2): −0.20
- FAR expression ([2]; J2 + H2O2): 1.07
- GST expression ([2]; J2 + H2O2): 0.21
- JAR expression ([2]; J2 + H2O2): −0.62
- LOX2 expression ([2]; J2 + H2O2): −0.39
- PECT expression ([2]; J2 + H2O2): 0.01
- POX expression ([2]; J2 + H2O2): 2.12
- WRKY expression ([2]; J2 + H2O2): 1.42
- ACCO expression ([2]; J3 + H2O2): 0.37
- APOX expression ([2]; J3 + H2O2): 0.36
- CAD expression ([2]; J3 + H2O2): 0.30
- CSL expression ([2]; J3 + H2O2): 1.32
- CalS expression ([2]; J3 + H2O2): 0.04
- EDS1 expression ([2]; J3 + H2O2): 1.44
- EIN3 expression ([2]; J3 + H2O2): 0.33
- FAR expression ([2]; J3 + H2O2): 0.12
- GST expression ([2]; J3 + H2O2): 0.30
- JAR expression ([2]; J3 + H2O2): 0.09
- LOX2 expression ([2]; J3 + H2O2): −0.03
- PECT expression ([2]; J3 + H2O2): 1.53
- POX expression ([2]; J3 + H2O2): 1.61
- WRKY expression ([2]; J3 + H2O2): 1.27

Compound: OO [H2O2, hydrogen peroxide]
- ANS expression ([2]; J2 + H2O2): −0.63
- CHS expression ([2]; J2 + H2O2): −0.80
- DFR expression ([2]; J2 + H2O2): −0.65
- FPPS expression ([2]; J2 + H2O2): 0.06
- HMGR expression ([2]; J2 + H2O2): 1.05
- PAL expression ([2]; J2 + H2O2): −0.56
- PPO expression ([2]; J2 + H2O2): 1.20
- PR1 expression ([2]; J2 + H2O2): 0.85
- PR2 expression ([2]; J2 + H2O2): 3.69
- PR4 expression ([2]; J2 + H2O2): 3.89
- PR5 expression ([2]; J2 + H2O2): 0.91
- PR8 expression ([2]; J2 + H2O2): 2.12
- PR14 expression ([2]; J2 + H2O2): 1.32
- PR15 expression ([2]; J2 + H2O2): −0.26
- ANS expression ([2]; J3 + H2O2): −0.49
- CHS expression ([2]; J3 + H2O2): −0.75
- DFR expression ([2]; J3 + H2O2): −0.36
- FPPS expression ([2]; J3 + H2O2): 0.08
- HMGR expression ([2]; J3 + H2O2): 0.14
- PAL expression ([2]; J3 + H2O2): −0.57
- PPO expression ([2]; J3 + H2O2): 0.71
- PR1 expression ([2]; J3 + H2O2): 1.41
- PR2 expression ([2]; J3 + H2O2): 4.05
- PR4 expression ([2]; J3 + H2O2): 2.59
- PR5 expression ([2]; J3 + H2O2): 1.73
- PR8 expression ([2]; J3 + H2O2): 1.73
- PR14 expression ([2]; J3 + H2O2): 3.29
- PR15 expression ([2]; J3 + H2O2): 1.57
- effect on the modulation of target gene expression (in words) [1]: only slightly modulate the target gene expressions
- Relative expression APOX (log base 2) ([1]; J2, relative to water control): 0.41 and 0.38
- Relative expression DFR (log base 2) ([1]; J2, relative to water control): 0.50 and 0.80
- Relative expression EIN3 (log base 2) ([1]; J2, relative to water control): 1.44 and 1.53
- Relative expression POX (log base 2) ([1]; J2, relative to water control): 1.07 and 1.06
- Relative expression WRKY (log base 2) ([1]; J2, relative to water control): −0.04 and −0.12
- Relative expression CAD (log base 2) ([1]; J3, relative to water control): −0.72 and −0.54
- Relative expression GST (log base 2) ([1]; J3, relative to water control): 0.33 and 0.40
- Relative expression LOX2 (log base 2) ([1]; J3, relative to water control): 0.16 and 0.42
- Relative expression of PR-2 ([1]; J2): 4.75 log2 and 3.92 log2
- Relative expression of PR-4 ([1]; J2): 2.53 log2 and 4.27 log2
- Relative expression of PR-8 ([1]; J2): 0.83 log2 and 0.79 log2
- Relative expression of PR-2 ([1]; J3): 2.36 log2 and 3.38 log2
